Patent US10000473B2, “Indazole derivatives useful as glucagon receptor antagonists” (Janssen Pharmaceutica NV, priority 2016, dated 2018)
pKi: −log10 of the molar value. “And” between values parts separate entries of the source, which are not always exact repeats. Equal values may be shown once.

molecular target: T1, human GCGR (Homo sapiens, UniProt P47871); experiment: Cellular functional assay, cAMP readout (glucagon-stimulated cAMP, LANCE TR-FRET); assay type: cell-based; conditions: HEK293 cells stably expressing full-length human GCGR; glucagon 100 pM; IC50 converted to Ki; read-out: Inhibition of cAMP Ki
T1 construct: expressed in transfected cells; host or cells: HEK293 (hGluc-1HEK), pcDNA3.1, G418 selection
Method: IC50 Values in Cellular Functional Assays: cAMP Readout
Full-length human GCGR (Accession Number: NM000160) subcloned into pcDNA3.1 was stably transfected into HEK293 cells (hGluc-1HEK) and maintained under G418 selection (500 μg/mL). Cell cultures were maintained in DMEM/F12 media supplemented with 10% FBS and 1% GlutaMax™ Supplement (Available from ThermoFisher Scientific, catalog #35050061). Glucagon stimulated cAMP was quantified using LANCE technology as per manufacturer instructions. On the day of the experiment, spent media was removed and cells were washed with Hank's Buffered Saline solution (HBSS), and cells harvested with non-enzymatic cell dissociation solution, then washed once with HBSS. Cells were re-suspended in stimulation buffer at a concentration of 0.83×10^6 cells/ml and cAMP detection antibody was added. 6 μl/well of this solution was then dispensed in a 384 well plate (cell density 5000 cells/well). Test compound was serially diluted in DMSO and 50 nl were dispensed on top of the cell solution and allowed to incubate for 30 minutes. 6 μl of a 2× glucagon solution (final concentration in assay 100 pM) was then added and the reaction was terminated after 5 minutes with the addition of detection mix. The resulting mixture was incubated, protected from light for 1.5 h. cAMP levels were quantified by TR-FRET in an EnVision instrument against a known standard. IC50's were generated by using a non-linear regression macro driven in Excel and converted to Ki values.

T1 sequence (P47871 26-477): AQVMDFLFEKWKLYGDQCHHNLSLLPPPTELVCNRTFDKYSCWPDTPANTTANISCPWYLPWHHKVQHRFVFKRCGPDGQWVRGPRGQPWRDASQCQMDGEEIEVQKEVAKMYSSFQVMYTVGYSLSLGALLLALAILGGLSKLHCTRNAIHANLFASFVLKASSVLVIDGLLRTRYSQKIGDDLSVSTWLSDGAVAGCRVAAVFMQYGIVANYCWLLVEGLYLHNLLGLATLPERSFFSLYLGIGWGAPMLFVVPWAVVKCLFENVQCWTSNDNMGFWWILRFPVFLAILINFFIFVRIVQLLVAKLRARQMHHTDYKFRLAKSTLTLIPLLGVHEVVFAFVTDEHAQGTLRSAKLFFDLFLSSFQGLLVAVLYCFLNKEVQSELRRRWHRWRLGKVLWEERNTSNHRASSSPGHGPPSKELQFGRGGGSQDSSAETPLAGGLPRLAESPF

| SMILES | pKi |
| --- | --- |
| Cc1cc2c(cnn2C(CC(C)C)c2ccc(C(=O)NCCC(=O)O)cc2)cc1-c1ccc(C(F)(F)F)cc1Cl (centres unmarked) [Compound #94, 3-[[4-[1-[5-[2-Chloro-4-(trifluoromethyl)phenyl]-6-methyl-indazol-1-yl]-3-methyl-butyl]benzoyl]amino]propanoic acid] | 7.59 |
| CC(C)CC(c1ccc(C(=O)NCCC(=O)O)nc1)n1cc2cc(-c3ccc(Cl)cc3Cl)ccc2n1 (centres unmarked) [Compound #83, 3-(5-(1-(5-(2,4-Dichlorophenyl)-2H-indazol-2-yl)-3-methylbutyl)picolinamido)propanoic acid] | 6.47 |
| CCCCCCC(c1ccc(C(=O)NCCC(=O)O)cc1)n1cc2cc(-c3ccc(Cl)cc3C)ccc2n1 (centres unmarked) [compound 204] | 7.68 |
| O=C(O)CCNC(=O)c1ccc(C(CCC(F)(F)F)n2ncc3cc(-c4cc(Cl)cc(Cl)c4)ccc32)cc1 (centres unmarked) [Compound #45, 3-[[4-[1-[5-(3,5-Dichlorophenyl)indazol-1-yl]-4,4,4-trifluorobutyl]benzoyl]amino]propanoic acid] | 5.78 |
| CCCCCCC(c1ccc(C(=O)NCCC(=O)O)cc1)n1cc2cc(-c3ccc(C(C)(C)C)cc3)ccc2n1 (centres unmarked) [compound 86] | 6.87 |
| CC(C)CC(c1ccc(C(=O)NCCC(=O)O)cc1)n1cc2cc(-c3cc4ccc(F)cc4s3)ccc2n1 (centres unmarked) [compound 57] | 6.77 |
| Cc1cc(C(F)(F)F)ccc1-c1ccc2nn(C(CC(C)C)c3ccc(C(=O)NCCC(=O)O)nc3)cc2c1 (centres unmarked) [Compound #19] | 7.33 and 7.31 |
| Cc1ccc(-c2ccc3c(cnn3C(CC(C)C)c3ccc(C(=O)NCCC(=O)O)cc3)c2C)c(Cl)c1 (centres unmarked) [Compound #105, 3-(4-(1-(5-(2-Chloro-4-methylphenyl)-4-methyl-1H-indazol-1-yl)-3-methylbutyl)benzamido)propanoic acid] | 6.10 |
| COc1c(-c2ccc(C(F)(F)F)cc2Cl)ccc2nn([C@H](CC(C)C)c3ccc(C(=O)NCCC(=O)O)cc3)cc12 [Compound #191, 3-[[4-[(1R)-1-[5-[2-Chloro-4-(trifluoromethyl)phenyl]-4-methoxy-indazol-2-yl]-3-methyl-butyl]benzoyl]amino]propanoic acid] | 7.46 |
| Cc1cc(C(F)(F)F)ccc1-c1cc2cnn(C(CC(C)C)c3ccc(C(=O)NCCC(=O)O)nc3)c2cc1Cl (centres unmarked) [Compound #146, 3-[[5-[1-[6-Chloro-5-[2-methyl-4-(trifluoromethyl)phenyl]indazol-1-yl]-3-methyl-butyl]pridine-2-carbonyl]amino]propanoic acid] | 6.80 |
| O=C(O)CCNC(=O)c1ccc(C(CCC(F)(F)F)n2cc3cc(-c4ccc(Cl)cc4Cl)ccc3n2)cc1 (centres unmarked) [Compound #224, 3-[[4-[1-[5-(2,4-Dichlorophenyl)indazol-2-yl]-4,4,4-trifluorobutyl]benzoyl]amino]propanoic acid] | 6.96 |
| Cc1cc(-c2ccc(C(C)(C)C)cc2)cc2cnn(C(CC(C)C)c3ccc(C(=O)NCCC(=O)O)nc3)c12 (centres unmarked) [compound 72] | < 5.59 |
| Cc1cc2c(cnn2C(CC(C)C)c2ccc(C(=O)NCCC(=O)O)nc2)cc1-c1ccc(C(F)(F)F)cc1Cl (centres unmarked) [Compound #259, 3-[[5-[1-[5-[2-Chloro-4-(trifluoromethyl)phenyl]-6-methyl-indazol-1-yl]-3-methyl-butyl]pridine-2-carbonyl]amino]propanoic acid] | 7.43 |
| Cc1ccc(-c2ccc3nn(C(CC(C)C)c4ccc(C(=O)NCCC(=O)O)cc4)cc3c2C)c(Cl)c1 (centres unmarked) [Compound #148, 3-(4-(1-(5-(2-Chloro-4-methylphenyl)-4-methyl-2H-indazol-2-yl)-3-methylbutyl)benzamido)propanoic acid] | 7.24 |
| CC(C)CC(c1ccc(C(=O)NCCC(=O)O)nc1)n1ncc2cc(-c3ccc(Cl)cc3Cl)ccc21 (centres unmarked) [Compound #113, 3-(5-(1-(5-(2,4-Dichlorophenyl)-1H-indazol-1-yl)-3-methylbutyl)picolinamido)propanoic acid] | 6.38 |
| O=C(O)CCNC(=O)c1ccc(C(CC2CCCC2)n2ncc3cc(-c4ccc(C(F)(F)F)cc4)ccc32)cc1 (centres unmarked) [compound 208] | 6.76 |
| COc1ccc2cc(-c3ccc4c(cnn4C(CC(C)C)c4ccc(C(=O)NCCC(=O)O)cc4)c3)ccc2c1 (centres unmarked) [compound 222] | 6.10 |
| Cc1ccc2sc(-c3ccc4nn(C(CC(C)C)c5ccc(C(=O)NCCC(=O)O)cc5)cc4c3)cc2c1 (centres unmarked) [compound 28] | 6.59 |
| CC(C)CC(c1ccc(C(=O)NCCC(=O)O)cc1)n1cc2cc(-c3ccsc3)ccc2n1 (centres unmarked) [compound 51] | 6.12 |
| CC(C)CCC(c1ccc(C(=O)NCCC(=O)O)cc1)n1cc2cc(-c3ccc(C(C)(C)C)cc3)ccc2n1 (centres unmarked) [Compound #227, 3-(4-(1-(5-(4-(tert-Butyl)phenyl)-2H-indazol-2-yl)-4-methylpentyl)benzamido)propanoic acid] | 6.48 |
| CC(C)(C)c1ccc(-c2ccc3c(cnn3C(CC3CCCCC3)c3ccc(C(=O)NCCC(=O)O)cc3)c2)cc1 (centres unmarked) [Compound #24, 3-(4-(1-(5-(4-(tert-Butyl)phenyl)-1H-indazol-1-yl)-2-cyclohexylethyl)benzamido)propanoic acid] | 6.94 |

Second part, the molecule after the results:

| pKi | SMILES |
| --- | --- |
| 7.24 | CCOc1c(-c2ccc(C(F)(F)F)cc2Cl)ccc2nn(C(CC(C)C)c3ccc(C(=O)NCCC(=O)O)nc3)cc12 (centres unmarked) [Compound #205, 3-(5-(1-(5-(2-Chloro-4-(trifluoromethyl)phenyl)-4-ethoxy-2H-indazol-2-yl)-3-methylbutyl)picolinamido)propanoic acid] |
| 6.33 | CC(C)CC(c1ccc(C(=O)NCCC(=O)O)cc1)n1ncc2cc(-c3ccc(C(C)(C)C)cc3)ccc21 (single isomer, unassigned) [Compound #163] |
| 6.62 | CC(C)CC(c1ccc(C(=O)NCCC(=O)O)cc1)n1cc2cc(-c3ccc(Cl)cc3Cl)ccc2n1 (centres unmarked) [Compound #226, 3-(4-(1-(5-(2,4-Dichlorophenyl)-2H-indazol-2-yl)-3-methylbutyl)benzamido)propanoic acid] |
| 7.05 | Cc1cc(Cl)ccc1-c1ccc2c(cnn2C(CC(C)(C)C)c2ccc(C(=O)NCCC(=O)O)cc2)c1 (centres unmarked) [compound 151] |
| 7.12 | CC(C)CC(c1ccc(C(=O)NCCC(=O)O)cc1)n1cc2cc(-c3cc4ccccc4o3)ccc2n1 (centres unmarked) [Compound #13] |
| 6.51 | Cc1c(-c2ccc(Cl)cc2Cl)ccc2c1cnn2C(CC(C)C)c1ccc(C(=O)NCCC(=O)O)cc1 (centres unmarked) [Compound #127, 3-(4-(1-(5-(2,4-Dichlorophenyl)-4-methyl-1H-indazol-1-yl)-3-methylbutyl)benzamido)propanoic acid] |
| 5.54 | CC(C)CC(c1ccc(C(=O)NCCC(=O)O)cc1)n1ncc2cc(-c3ccsc3)ccc21 (centres unmarked) [compound 221] |
| 7.52 | Cc1cc(C(F)(F)F)ccc1-c1cc2cn(C(CC(C)C)c3ccc(C(=O)NCCC(=O)O)nc3)nc2cc1C (centres unmarked) [Compound #187, 3-[[5-[3-Methyl-1-[6-methyl-5-[2-methyl-4-(trifluoromethyl)phenyl]indazol-2-yl]butyl]pyridine-2-carbonyl]amino]propanoic acid] |
| 6.59 | CC(C)CC(c1ccc(C(=O)NCCC(=O)O)nc1)n1ncc2cc(-c3ccc(C(F)(F)F)cc3)ccc21 (centres unmarked) [compound 74] |
| 6.47 | CC(C)CC(c1ccc(C(=O)NCCC(=O)O)cc1)n1cc2cc(-c3ccc4cnn(C)c4c3)ccc2n1 (centres unmarked) [compound 80] |
| 5.49 | CC(c1ccc(C(=O)NCCC(=O)O)cc1)n1cc2cc(-c3ccc(C(C)(C)C)cc3)ccc2n1 (centres unmarked) [Compound #161, 3-(4-(1-(5-(4-(tert-butyl)phenyl)-2H-indazol-2-yl)ethyl)benzamido) propanoic acid] |
